Reference: patent US20210045385A1, “PYRIDAZINONE-SUBSTITUTED KETOXIMES AS HERBICIDES” (FMC Corporation, priority 2018, published 2021)

Tests used:
Format in all cases: in vivo
[1] = tested on: barnyardgrass (Echinochloa crus-galli); assay: Test C preemergence, visual plant response rating; conditions: Test C, 0 is no effect, 100 is complete control
Method in brief: (§1)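 Visual injury on a 0 (no effect) to 100 (complete control) scale versus untreated controls, scored approximately 10 d after treatment under greenhouse conditions. Treatments used surfactant-containing non-phytotoxic solvent formulations, sprayed onto loam–sand soil preemergence or onto one- to two-leaf plants 2–10 cm tall postemergence.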

[2] = tested on: ragweed (common ragweed, Ambrosia artemisiifolia); assay: Test C preemergence, visual plant response rating; conditions: Test C, 0 is no effect, 100 is complete control
Method in brief: as §1

kochia (Bassia scoparia) [3] = assay: Test C preemergence, visual plant response rating; conditions: Test C, 0 is no effect, 100 is complete control
Method in brief: as §1

[4] = tested on: pigweed (Amaranthus retroflexus); assay: Test C preemergence, visual plant response rating; conditions: Test C, 0 is no effect, 100 is complete control
Method in brief: as §1

[5] = tested on: foxtail, giant (giant foxtail, Setaria faberi); assay: Test C preemergence, visual plant response rating; conditions: Test C, 0 is no effect, 100 is complete control
Method in brief: as §1

[6] = tested on: Italian ryegrass (Lolium mutiflorum); assay: Test C preemergence, visual plant response rating; conditions: Test C, 0 is no effect, 100 is complete control
Method in brief: as §1

[7] = tested on: barnyardgrass (Echinochloa crus-galli); assay: Test D flooded paddy test, visual plant response rating; conditions: 250 g ai/ha, scale 0 to 100 (0 no effect, 100 complete control), 13 to 15 d
Method in brief: (§2)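 Rating is visual, on a 0 (no effect) to 100 (complete control) scale versus controls, taken 13 to 15 d after treatment in a greenhouse. Treatment went into paddy water kept 3 cm above the soil surface, with plants at the 2-leaf stage.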

[8] = tested on: duck salad (Heteranthera limosa); assay: as above; conditions: 250 g ai/ha, scale 0 to 100 (0 no effect, 100 complete control), 13 to 15 d
Method in brief: as §2

[9] = tested on: sedge umbrella (small-flower umbrella sedge, Cyperus difformis); assay: as above; conditions: 250 g ai/ha, scale 0 to 100 (0 no effect, 100 complete control), 13 to 15 d
Method in brief: as §2

rice (Oryza sativa) = assay: as above; conditions: 250 g ai/ha, scale 0 to 100 (0 no effect, 100 complete control), 13 to 15 d
Method in brief: as §2

[10] = tested on: barnyardgrass (Echinochloa crus-galli); assay: Test C postemergence, visual plant response rating
Method in brief: as §1

[11] = tested on: wheat (Triticum aestivum); assay: Test C postemergence, visual plant response rating
Method in brief: as §1

[12] = tested on: ragweed (common ragweed, Ambrosia artemisiifolia); assay: Test C postemergence, visual plant response rating
Method in brief: as §1

kochia (Bassia scoparia) [13] = assay: Test C postemergence, visual plant response rating
Method in brief: as §1

[14] = tested on: galium (catchweed bedstraw, Galium aparine); assay: Test C postemergence, visual plant response rating
Method in brief: as §1

[15] = tested on: blackgrass (Alopecurus myosuroides); assay: Test C postemergence, visual plant response rating
Method in brief: as §1

[16] = tested on: pigweed (Amaranthus retroflexus); assay: Test C postemergence, visual plant response rating
Method in brief: as §1

[17] = tested on: foxtail, giant (giant foxtail, Setaria faberi); assay: Test C postemergence, visual plant response rating
Method in brief: as §1

corn (Zea mays) = assay: Test C postemergence, visual plant response rating
Method in brief: as §1

[18] = tested on: Italian ryegrass (Lolium mutiflorum); assay: Test C postemergence, visual plant response rating
Method in brief: as §1

[19] = Test C, postemergence, 125 g ai/ha

SMILES: CO/N=C(\c1cc(F)cc(C)c1F)c1c(O)c(C)nn(C)c1=O [Compound 193]
- Barnyardgrass plant response rating (0 to 100 scale) ([1]; 31 g ai/ha): 30
- Barnyardgrass plant response rating (0 to 100 scale) ([1]; 125 g ai/ha): 60
- Ragweed plant response rating (0 to 100 scale) ([2]; 31 g ai/ha): 30
- Ragweed plant response rating (0 to 100 scale) ([2]; 125 g ai/ha): 60
- Kochia plant response rating (0 to 100 scale) (kochia (Bassia scoparia) [3]; 31 g ai/ha): 10
- Kochia plant response rating (0 to 100 scale) (kochia (Bassia scoparia) [3]; 125 g ai/ha): 70
- Pigweed plant response rating (0 to 100 scale) ([4]; 31 g ai/ha): 50
- Pigweed plant response rating (0 to 100 scale) ([4]; 125 g ai/ha): 90
- Foxtail, Giant plant response rating (0 to 100 scale) ([5]; 31 g ai/ha): 30
- Foxtail, Giant plant response rating (0 to 100 scale) ([5]; 125 g ai/ha): 80
- Ryegrass, Italian plant response rating (0 to 100 scale) ([6]; 31 g ai/ha): 30
- Ryegrass, Italian plant response rating (0 to 100 scale) ([6]; 125 g ai/ha): 80
- Plant response rating, Barnyardgrass (Flood) [7]: 0
- Plant response rating, Ducksalad (Flood) [8]: 0
- Plant response rating, Sedge, Umbrella (Flood) [9]: 0
- Plant response rating, Rice (Flood) (rice (Oryza sativa)): 0
- Barnyardgrass plant response rating (0 to 100 scale) ([10]; Postemergence, 31 g ai/ha): 20
- Barnyardgrass plant response rating (0 to 100 scale) [10, 19]: 50
- Wheat plant response rating (0 to 100 scale) ([11]; Postemergence, 31 g ai/ha): 0
- Wheat plant response rating (0 to 100 scale) [11, 19]: 0
- Ragweed plant response rating (0 to 100 scale) ([12]; Postemergence, 31 g ai/ha): 70
- Ragweed plant response rating (0 to 100 scale) [12, 19]: 70
- Kochia plant response rating (0 to 100 scale) (kochia (Bassia scoparia) [13]; Postemergence, 31 g ai/ha): 60
- Kochia plant response rating (0 to 100 scale) (kochia (Bassia scoparia) [13]; [19]): 70
- Galium plant response rating (0 to 100 scale) ([14]; Postemergence, 31 g ai/ha): 80
- Galium plant response rating (0 to 100 scale) [14, 19]: 90
- Blackgrass plant response rating (0 to 100 scale) ([15]; Postemergence, 31 g ai/ha): 20
- Blackgrass plant response rating (0 to 100 scale) [15, 19]: 50
- Pigweed plant response rating (0 to 100 scale) ([16]; Postemergence, 31 g ai/ha): 40
- Pigweed plant response rating (0 to 100 scale) [16, 19]: 80
- Foxtail, Giant plant response rating (0 to 100 scale) ([17]; Postemergence, 31 g ai/ha): 40
- Foxtail, Giant plant response rating (0 to 100 scale) [17, 19]: 50
- Corn plant response rating (0 to 100 scale) (corn (Zea mays); Postemergence, 31 g ai/ha): 0
- Corn plant response rating (0 to 100 scale) (corn (Zea mays); [19]): 10
- Ryegrass, Italian plant response rating (0 to 100 scale) ([18]; Postemergence, 31 g ai/ha): 40
- Ryegrass, Italian plant response rating (0 to 100 scale) [18, 19]: 70

SMILES: C#CCON=C(c1cccc(OCC)c1)c1c(O)c(C)nn(C)c1=O [Compound 199]
- Barnyardgrass plant response rating (0 to 100 scale) ([1]; 31 g ai/ha): 0
- Barnyardgrass plant response rating (0 to 100 scale) ([1]; 125 g ai/ha): 0
- Ragweed plant response rating (0 to 100 scale) ([2]; 31 g ai/ha): 0
- Ragweed plant response rating (0 to 100 scale) ([2]; 125 g ai/ha): 0
- Kochia plant response rating (0 to 100 scale) (kochia (Bassia scoparia) [3]; 31 g ai/ha): 0
- Kochia plant response rating (0 to 100 scale) (kochia (Bassia scoparia) [3]; 125 g ai/ha): 0
- Pigweed plant response rating (0 to 100 scale) ([4]; 31 g ai/ha): 0
- Pigweed plant response rating (0 to 100 scale) ([4]; 125 g ai/ha): 10
- Foxtail, Giant plant response rating (0 to 100 scale) ([5]; 31 g ai/ha): 0
- Foxtail, Giant plant response rating (0 to 100 scale) ([5]; 125 g ai/ha): 10
- Ryegrass, Italian plant response rating (0 to 100 scale) ([6]; 31 g ai/ha): 0
- Ryegrass, Italian plant response rating (0 to 100 scale) ([6]; 125 g ai/ha): 20
- Plant response rating, Barnyardgrass (Flood) [7]: 0
- Plant response rating, Ducksalad (Flood) [8]: 0
- Plant response rating, Sedge, Umbrella (Flood) [9]: 0
- Plant response rating, Rice (Flood) (rice (Oryza sativa)): 0
- Barnyardgrass plant response rating (0 to 100 scale) ([10]; Postemergence, 31 g ai/ha): 0
- Barnyardgrass plant response rating (0 to 100 scale) [10, 19]: 20
- Wheat plant response rating (0 to 100 scale) ([11]; Postemergence, 31 g ai/ha): 0
- Wheat plant response rating (0 to 100 scale) [11, 19]: 0
- Ragweed plant response rating (0 to 100 scale) ([12]; Postemergence, 31 g ai/ha): 0
- Ragweed plant response rating (0 to 100 scale) [12, 19]: 0
- Kochia plant response rating (0 to 100 scale) (kochia (Bassia scoparia) [13]; Postemergence, 31 g ai/ha): 0
- Kochia plant response rating (0 to 100 scale) (kochia (Bassia scoparia) [13]; [19]): 0
- Galium plant response rating (0 to 100 scale) ([14]; Postemergence, 31 g ai/ha): 20
- Galium plant response rating (0 to 100 scale) [14, 19]: 30
- Blackgrass plant response rating (0 to 100 scale) ([15]; Postemergence, 31 g ai/ha): 0
- Blackgrass plant response rating (0 to 100 scale) [15, 19]: 20
- Pigweed plant response rating (0 to 100 scale) ([16]; Postemergence, 31 g ai/ha): 0
- Pigweed plant response rating (0 to 100 scale) [16, 19]: 0
- Foxtail, Giant plant response rating (0 to 100 scale) ([17]; Postemergence, 31 g ai/ha): 0
- Foxtail, Giant plant response rating (0 to 100 scale) [17, 19]: 20
- Corn plant response rating (0 to 100 scale) (corn (Zea mays); Postemergence, 31 g ai/ha): 0
- Corn plant response rating (0 to 100 scale) (corn (Zea mays); [19]): 0
- Ryegrass, Italian plant response rating (0 to 100 scale) ([18]; Postemergence, 31 g ai/ha): 0
- Ryegrass, Italian plant response rating (0 to 100 scale) [18, 19]: 0

SMILES: CCO/N=C(\c1c(O)c(Cl)nn(C)c1=O)c1ccc(F)c2ccccc12 [Compound 212]
- Barnyardgrass plant response rating (0 to 100 scale) ([1]; 31 g ai/ha): 40
- Barnyardgrass plant response rating (0 to 100 scale) ([1]; 125 g ai/ha): 80
- Ragweed plant response rating (0 to 100 scale) ([2]; 31 g ai/ha): 10
- Ragweed plant response rating (0 to 100 scale) ([2]; 125 g ai/ha): 100
- Kochia plant response rating (0 to 100 scale) (kochia (Bassia scoparia) [3]; 31 g ai/ha): 0
- Kochia plant response rating (0 to 100 scale) (kochia (Bassia scoparia) [3]; 125 g ai/ha): 20
- Pigweed plant response rating (0 to 100 scale) ([4]; 31 g ai/ha): 10
- Pigweed plant response rating (0 to 100 scale) ([4]; 125 g ai/ha): 100
- Foxtail, Giant plant response rating (0 to 100 scale) ([5]; 31 g ai/ha): 80
- Foxtail, Giant plant response rating (0 to 100 scale) ([5]; 125 g ai/ha): 100
- Ryegrass, Italian plant response rating (0 to 100 scale) ([6]; 31 g ai/ha): 0
- Ryegrass, Italian plant response rating (0 to 100 scale) ([6]; 125 g ai/ha): 30
- Plant response rating, Barnyardgrass (Flood) [7]: 20
- Plant response rating, Ducksalad (Flood) [8]: 60
- Plant response rating, Sedge, Umbrella (Flood) [9]: 65
- Plant response rating, Rice (Flood) (rice (Oryza sativa)): 0
- Barnyardgrass plant response rating (0 to 100 scale) ([10]; Postemergence, 31 g ai/ha): 50
- Barnyardgrass plant response rating (0 to 100 scale) [10, 19]: 70
- Wheat plant response rating (0 to 100 scale) ([11]; Postemergence, 31 g ai/ha): 0
- Wheat plant response rating (0 to 100 scale) [11, 19]: 0
- Ragweed plant response rating (0 to 100 scale) ([12]; Postemergence, 31 g ai/ha): 100
- Ragweed plant response rating (0 to 100 scale) [12, 19]: 90
- Kochia plant response rating (0 to 100 scale) (kochia (Bassia scoparia) [13]; Postemergence, 31 g ai/ha): 50
- Kochia plant response rating (0 to 100 scale) (kochia (Bassia scoparia) [13]; [19]): 50
- Galium plant response rating (0 to 100 scale) ([14]; Postemergence, 31 g ai/ha): 90
- Galium plant response rating (0 to 100 scale) [14, 19]: 100
- Blackgrass plant response rating (0 to 100 scale) ([15]; Postemergence, 31 g ai/ha): 0
- Blackgrass plant response rating (0 to 100 scale) [15, 19]: 0
- Pigweed plant response rating (0 to 100 scale) ([16]; Postemergence, 31 g ai/ha): 50
- Pigweed plant response rating (0 to 100 scale) [16, 19]: 90
- Foxtail, Giant plant response rating (0 to 100 scale) ([17]; Postemergence, 31 g ai/ha): 50
- Foxtail, Giant plant response rating (0 to 100 scale) [17, 19]: 80
- Corn plant response rating (0 to 100 scale) (corn (Zea mays); Postemergence, 31 g ai/ha): 0
- Corn plant response rating (0 to 100 scale) (corn (Zea mays); [19]): 0
- Ryegrass, Italian plant response rating (0 to 100 scale) ([18]; Postemergence, 31 g ai/ha): 10
- Ryegrass, Italian plant response rating (0 to 100 scale) [18, 19]: 80
